Measured values taken from PMC7736868, “Fluorescent ligands for dopamine D2/D3 receptors” (Scientific Reports, 2020).
Like-named read-outs stand apart in the source and are kept apart here.

Experiments:
porcine D1R = target: T1, porcine D1R (Sus scrofa, UniProt P50130); experiment: Radioligand competition, [3H]SCH23390, porcine striatum homogenates; format: binding; details: [3H]SCH23,390; mean of n experiments; read-out: Ki pD1R
T1 construct: homogenates obtained from porcine striatum; from tissue; host or cells: porcine striatum homogenate
T1 sequence (P50130 whole entry): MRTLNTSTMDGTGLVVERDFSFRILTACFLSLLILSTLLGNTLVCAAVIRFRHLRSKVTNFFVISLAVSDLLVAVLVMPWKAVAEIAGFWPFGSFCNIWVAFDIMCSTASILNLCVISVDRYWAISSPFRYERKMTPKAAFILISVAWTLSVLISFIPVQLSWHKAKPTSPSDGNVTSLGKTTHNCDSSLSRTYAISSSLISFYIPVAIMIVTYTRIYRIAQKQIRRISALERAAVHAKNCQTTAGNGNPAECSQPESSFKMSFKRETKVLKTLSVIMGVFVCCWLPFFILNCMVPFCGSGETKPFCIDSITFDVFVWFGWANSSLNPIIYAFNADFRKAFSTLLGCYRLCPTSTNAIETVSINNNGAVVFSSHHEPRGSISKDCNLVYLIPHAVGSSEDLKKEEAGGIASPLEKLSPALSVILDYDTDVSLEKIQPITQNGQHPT

porcine 5-HT1AR = target: T2, porcine 5-HT1AR (Sus scrofa, UniProt A0A4X1UTF5); experiment: Radioligand competition, [3H]WAY100,635, porcine cerebral cortex homogenates; format: binding; details: mean of n experiments, read-out: Ki p5-HT1AR
T2 construct: homogenates of porcine cerebral cortex; from tissue; host or cells: porcine cerebral cortex homogenate
T2 sequence (A0A4X1UTF5 1-422): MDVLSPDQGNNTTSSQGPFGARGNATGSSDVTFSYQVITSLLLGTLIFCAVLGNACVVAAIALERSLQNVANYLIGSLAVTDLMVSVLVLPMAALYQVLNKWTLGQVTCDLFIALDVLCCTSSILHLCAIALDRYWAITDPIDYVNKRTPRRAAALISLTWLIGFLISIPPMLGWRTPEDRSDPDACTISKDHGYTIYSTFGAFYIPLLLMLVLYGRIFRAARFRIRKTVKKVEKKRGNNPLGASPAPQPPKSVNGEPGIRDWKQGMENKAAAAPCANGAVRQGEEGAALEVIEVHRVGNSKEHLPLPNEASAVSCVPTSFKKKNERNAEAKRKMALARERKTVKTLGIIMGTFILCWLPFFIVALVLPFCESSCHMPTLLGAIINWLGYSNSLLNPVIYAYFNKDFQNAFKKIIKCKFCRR

porcine 5-HT2R = target: T3, porcine 5-HT2R (Sus scrofa, UniProt P50129); experiment: Radioligand competition, [3H]ketanserin, porcine cerebral cortex homogenates; format: binding; details: mean of n experiments, read-out: Ki p5-HT2R
T3 construct: homogenates of porcine cerebral cortex; from tissue; host or cells: porcine cerebral cortex homogenate
T3 sequence (P50129 whole entry): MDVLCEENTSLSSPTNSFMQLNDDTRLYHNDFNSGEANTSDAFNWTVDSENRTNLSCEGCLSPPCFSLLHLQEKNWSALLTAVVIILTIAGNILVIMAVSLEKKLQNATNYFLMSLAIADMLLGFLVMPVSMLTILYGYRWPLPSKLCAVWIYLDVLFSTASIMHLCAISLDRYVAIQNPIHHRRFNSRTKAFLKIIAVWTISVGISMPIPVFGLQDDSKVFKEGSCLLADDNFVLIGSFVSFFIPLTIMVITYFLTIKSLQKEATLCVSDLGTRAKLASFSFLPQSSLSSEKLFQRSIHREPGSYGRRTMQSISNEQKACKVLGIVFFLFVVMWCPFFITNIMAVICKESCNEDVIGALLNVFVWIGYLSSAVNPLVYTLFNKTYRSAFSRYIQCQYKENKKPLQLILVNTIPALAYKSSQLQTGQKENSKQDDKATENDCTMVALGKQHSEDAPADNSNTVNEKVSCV

human D2LR = human D2LR (Homo sapiens, UniProt P14416); experiment: Radioligand competition, [3H]spiperone, CHO cell membranes
human D2LR, sequence (P14416 whole entry): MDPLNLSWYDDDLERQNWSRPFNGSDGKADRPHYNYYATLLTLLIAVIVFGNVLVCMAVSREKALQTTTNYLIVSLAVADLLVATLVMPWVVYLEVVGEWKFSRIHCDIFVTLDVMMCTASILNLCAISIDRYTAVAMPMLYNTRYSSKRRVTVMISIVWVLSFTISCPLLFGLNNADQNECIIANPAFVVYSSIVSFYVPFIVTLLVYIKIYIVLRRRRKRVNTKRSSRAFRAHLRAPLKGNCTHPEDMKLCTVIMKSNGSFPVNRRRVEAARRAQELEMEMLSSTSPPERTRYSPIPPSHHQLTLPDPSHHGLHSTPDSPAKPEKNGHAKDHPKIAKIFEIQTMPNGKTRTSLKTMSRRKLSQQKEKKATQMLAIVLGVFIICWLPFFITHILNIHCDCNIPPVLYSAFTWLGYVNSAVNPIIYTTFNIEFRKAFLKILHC

D2SR [1] = target: T4, D2SR (Homo sapiens, UniProt P14416); experiment: as above
T4 sequence (P14416 1-414 isoform P14416-2): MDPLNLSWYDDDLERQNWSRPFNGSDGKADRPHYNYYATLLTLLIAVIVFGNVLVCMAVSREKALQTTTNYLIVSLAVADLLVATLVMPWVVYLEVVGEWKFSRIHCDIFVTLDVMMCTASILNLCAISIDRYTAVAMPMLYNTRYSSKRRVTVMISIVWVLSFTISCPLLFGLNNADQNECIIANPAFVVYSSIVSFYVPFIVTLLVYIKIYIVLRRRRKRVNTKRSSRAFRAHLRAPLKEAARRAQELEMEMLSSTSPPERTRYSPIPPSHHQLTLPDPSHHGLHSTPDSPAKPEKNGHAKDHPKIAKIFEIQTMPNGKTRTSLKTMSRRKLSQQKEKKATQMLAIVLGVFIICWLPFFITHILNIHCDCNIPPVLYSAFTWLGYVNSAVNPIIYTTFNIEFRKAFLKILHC

human D3R = human D3R (Homo sapiens, UniProt P35462); experiment: as above
human D3R, sequence (P35462 whole entry): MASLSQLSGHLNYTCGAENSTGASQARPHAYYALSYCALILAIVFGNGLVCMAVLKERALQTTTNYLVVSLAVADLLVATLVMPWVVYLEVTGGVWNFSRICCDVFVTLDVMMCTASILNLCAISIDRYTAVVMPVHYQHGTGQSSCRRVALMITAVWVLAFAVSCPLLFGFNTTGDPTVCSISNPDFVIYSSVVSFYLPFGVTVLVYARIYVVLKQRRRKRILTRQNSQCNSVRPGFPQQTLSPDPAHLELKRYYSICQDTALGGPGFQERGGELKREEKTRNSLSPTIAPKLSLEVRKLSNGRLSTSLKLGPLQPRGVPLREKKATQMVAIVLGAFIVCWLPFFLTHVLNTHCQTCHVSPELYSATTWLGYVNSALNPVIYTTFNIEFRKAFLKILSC

human D4R = target: T5, human D4R (Homo sapiens, UniProt P21917); experiment: as above
T5 sequence (P21917 1-419): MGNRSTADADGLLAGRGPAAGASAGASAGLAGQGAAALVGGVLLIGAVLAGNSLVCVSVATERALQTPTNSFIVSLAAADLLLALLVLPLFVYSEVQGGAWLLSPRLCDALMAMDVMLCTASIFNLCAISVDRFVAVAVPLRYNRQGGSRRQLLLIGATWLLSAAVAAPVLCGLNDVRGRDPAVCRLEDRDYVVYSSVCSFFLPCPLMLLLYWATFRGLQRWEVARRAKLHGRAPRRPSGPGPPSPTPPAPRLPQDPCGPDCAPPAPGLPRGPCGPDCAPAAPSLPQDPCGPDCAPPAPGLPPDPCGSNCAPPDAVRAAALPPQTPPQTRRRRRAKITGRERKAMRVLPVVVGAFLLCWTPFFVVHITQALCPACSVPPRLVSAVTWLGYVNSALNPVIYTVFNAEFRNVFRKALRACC

porcine α1-AR = experiment: Radioligand competition, [3H]prazosin, porcine cerebral cortex homogenates; details: read-out: Ki pα1-AR, mean of n experiments
D2SR [2] = target: T4, D2SR; experiment: β-arrestin-2 recruitment (Pathhunter, DiscoverX), HEK293 cells, GRK2 coexpressed; format: cell-based; design: expressed in transfected cells; details: for Emax: read-out: Emax β-arrestin-2 recruitment at D2SR, reference agonist quinpirole
human isoform of D1R = human isoform of D1R (Homo sapiens, UniProt P21728); experiment: Radioligand competition at human isoform of D1R; format: binding; details: assay performed with human isoform of D1R; [3H]SCH23,390 column
human isoform of D1R, sequence (P21728 whole entry, canonical isoform): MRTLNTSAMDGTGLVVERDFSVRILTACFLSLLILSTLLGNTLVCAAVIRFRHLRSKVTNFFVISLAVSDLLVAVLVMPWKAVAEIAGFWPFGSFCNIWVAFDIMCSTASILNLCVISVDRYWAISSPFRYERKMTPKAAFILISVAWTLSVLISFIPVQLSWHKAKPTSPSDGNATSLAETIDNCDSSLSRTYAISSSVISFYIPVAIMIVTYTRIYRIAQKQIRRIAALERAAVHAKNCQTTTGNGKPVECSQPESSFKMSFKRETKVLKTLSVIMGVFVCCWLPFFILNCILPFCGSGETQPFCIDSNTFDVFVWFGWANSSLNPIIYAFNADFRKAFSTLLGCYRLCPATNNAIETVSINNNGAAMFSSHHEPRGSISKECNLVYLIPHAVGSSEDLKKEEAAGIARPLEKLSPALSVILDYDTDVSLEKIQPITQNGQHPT
Description: Supplementary Table S1. Binding affinities of the test compounds. Binding affinities of the test compounds for porcine D1R, 5-HT 1AR, 5-HT 2R and α1-AR were determined by radioligand […]
a Data are indicated as m ean (and range) of (n) individual experim ents, each per form ed in triplicate; b assay perform ed with hum an isoform of D1R; c n. d. K i not determ ined as no com plete ligand displacem ent occurred;

secNluc-D3R = secNluc-D3R (UniProt P35462+Q9GV45, A31E/A60N/A81I/F95D/I117V/K70R/L54V/L99Q/M102K/N193R/P142E/Q151K/Q38R/Q45L/V71I/Y165I); experiment: NanoBRET association and dissociation kinetics, membranes; format: binding
secNluc-D3R, sequence (Q9GV45+P35462 fused with the stated changes): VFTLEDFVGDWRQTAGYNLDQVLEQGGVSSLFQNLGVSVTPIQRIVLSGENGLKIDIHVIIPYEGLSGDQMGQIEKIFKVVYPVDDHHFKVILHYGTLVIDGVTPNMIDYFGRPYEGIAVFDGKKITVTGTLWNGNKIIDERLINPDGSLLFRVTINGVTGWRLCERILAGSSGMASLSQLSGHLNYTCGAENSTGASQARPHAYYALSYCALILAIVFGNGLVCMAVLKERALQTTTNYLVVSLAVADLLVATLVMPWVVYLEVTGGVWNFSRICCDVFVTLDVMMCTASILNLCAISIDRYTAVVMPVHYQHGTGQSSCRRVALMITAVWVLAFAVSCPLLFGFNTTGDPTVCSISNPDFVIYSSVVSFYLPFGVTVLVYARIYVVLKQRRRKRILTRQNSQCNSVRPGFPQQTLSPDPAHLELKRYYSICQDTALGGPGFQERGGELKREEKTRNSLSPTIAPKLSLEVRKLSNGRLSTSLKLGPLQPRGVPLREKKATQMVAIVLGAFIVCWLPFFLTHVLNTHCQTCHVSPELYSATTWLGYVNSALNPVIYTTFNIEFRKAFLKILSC
Description: (a) Association of 10a at room temperature was measured by NanoBRET using secNluc-D3R membrane preparations and threefold serial dilutions of 10a (3.3–30 nM). […] Obtained IC50 values were transformed into Ki values applying the equation of Cheng and Prusoff[52]. […] Kinetic assays were monitored at room temperature and minimal possible cycle time of the CLARIOstar was used for each measurement. Data was fitted to one phase association and dissociation equations in PRISM6.0 to determine the kinetic constants. […] Addition of furimazine (1:5,000) and BRET measurements were carried out as described above. Data analysis was performed using the one site—fit Ki equation in PRISM6.0 to determine the inhibition constants (Ki) of the unlabeled ligands.

[3] = read-out: EC50 β-arrestin-2 recruitment at D2SR, mean ± SEM
[4] = read-out: Ki hD2LR, [3H]spiperone, mean ± SEM
[5] = read-out: Ki hD2SR, [3H]spiperone, mean ± SEM
[6] = read-out: Ki hD3R, [3H]spiperone, mean ± SEM
[7] = read-out: Ki hD4R, [3H]spiperone, mean ± SEM

Compound | Ki (porcine D1R) | Ki (porcine 5-HT1AR) | Ki (porcine 5-HT2R) | Ki (human D2LR) | Ki (D2SR [1]) | Ki (human D3R) | Ki (human D4R) | Ki (porcine α1-AR) | further results
CCCN(CCCCc1cn(-c2ccc(C#N)cc2)nn1)C1Cc2ccccc2C1 [2a] | 3000 nM | 52 nM | 850 nM | 8.7 ± 2.5 nM | 6.5 ± 1.7 nM | 0.41 ± 0.09 nM | 33 ± 7 nM | 87 nM | –
N#Cc1ccc(-n2cc(CCCCN3CCN(c4cccc(Cl)c4Cl)CC3)nn2)cc1 [2b] | 540 nM | 260 nM | 1100 nM | 15 ± 5 nM | 6.3 ± 0.2 nM | 1 ± 0.2 nM | 120 ± 61 nM | 4.9 nM | –
COc1ccccc1N1CCN(CCCCc2cn(-c3ccc(C#N)cc3)nn2)CC1 [2c] | 1100 nM | 25 nM | 600 nM | 77 ± 17 nM | 34 ± 8 nM | 13 ± 4 nM | 140 ± 10 nM | 2.4 nM | –
CC(C)(C)c1nc(N2CCN(CCCCc3cn(-c4ccc(C#N)cc4)nn3)CC2)cc(C(F)(F)F)n1 [2d] | 5500 nM | 4100 nM | 4400 nM | 360 ± 60 nM | 350 ± 30 nM | 9.5 ± 1.9 nM | 5000 nM | 1100 nM | –
CCCN(CCCCc1cn(-c2ccc(CNS(=O)(=O)c3cccc4c(N(C)C)cccc34)cc2)nn1)C1Cc2ccccc2C1 [4a] | 590 nM | 27 nM | 220 nM | 5.2 ± 0.6 nM | 1.7 ± 0.3 nM | 0.29 ± 0.02 nM | 27 ± 3 nM | 29 nM | –
CN(C)c1cccc2c(S(=O)(=O)NCc3ccc(-n4cc(CCCCN5CCN(c6cccc(Cl)c6Cl)CC5)nn4)cc3)cccc12 [4b] | 190 nM | 78 nM | 390 nM | 20 ± 8 nM | 5.1 ± 1.7 nM | 1.9 ± 0.7 nM | 59 ± 20 nM | 7.9 nM | –
COc1ccccc1N1CCN(CCCCc2cn(-c3ccc(CNS(=O)(=O)c4cccc5c(N(C)C)cccc45)cc3)nn2)CC1 [4c] | 180 nM | 55 nM | 450 nM | 17 ± 7 nM | 8.4 ± 3.4 nM | 6.5 ± 2.3 nM | 32 ± 6 nM | 1.1 nM | –
CN(C)c1cccc2c(S(=O)(=O)NCc3ccc(-n4cc(CCCCN5CCN(c6cc(C(F)(F)F)nc(C(C)(C)C)n6)CC5)nn4)cc3)cccc12 [4d] | > 10000 nM | > 10000 nM | > 10000 nM | 7600 nM | 6000 nM | 11 ± 2 nM | > 10000 nM | 3000 nM | decrease of D2LR affinity by introduction of the dansyl moiety (factor) (human D2LR; 4d versus 2d): ~ 20; decrease of D2SR affinity by introduction of the dansyl moiety (factor) (D2SR [1]; 4d versus 2d): ~ 20
CCCN(CCCCc1cn(-c2ccc(C(=O)NCCCN)cc2)nn1)C1Cc2ccccc2C1 [7a] | 3600 nM | 13 nM | 400 nM | 3.5 ± 0.4 nM | 1.8 ± 0.2 nM | 0.26 ± 0.03 nM | 8.5 ± 0.8 nM | 37 nM | –
CCCN(CCCCc1cn(-c2ccc(C(=O)NCCCNS(=O)(=O)c3cccc4c(N(C)C)cccc34)cc2)nn1)C1Cc2ccccc2C1 [8a] | 1100 nM | 70 nM | 690 nM | 1.2 ± 0.2 nM | 0.44 ± 0.12 nM | 0.32 ± 0.05 nM | 10 ± 4 nM | 22 nM | EC50 (D2SR [2]; mean ± SEM): 51 ± 11 nM; Emax (D2SR [2]): 98 ± 2%
CN(C)c1cccc2c(S(=O)(=O)NCCCNC(=O)c3ccc(-n4cc(CCCCN5CCN(c6cccc(Cl)c6Cl)CC5)nn4)cc3)cccc12 [8b] | 340 nM | 170 nM | 380 nM | 13 ± 6 nM | 3.6 ± 1.6 nM | 1.9 ± 0.9 nM | 130 ± 10 nM | 23 nM | –
CCCN(CCCCc1cn(-c2ccc(CNC(=O)c3ccc(-c4c5ccc(=NCC(F)(F)F)cc-5oc5cc(NCC(F)(F)F)ccc45)c(C(=O)O)c3)cc2)nn1)C1Cc2ccccc2C1 [10a] | – | – | – | 46 ± 7 nM | 21 ± 4 nM | 0.97 ± 0.23 nM | 56 ± 4 nM | 100 nM | Ki (human isoform of D1R): 310 nM; koff (secNluc-D3R): 0.0009 s⁻¹; residence time (secNluc-D3R): 19 ± 1 min; kon (secNluc-D3R; read-out: Kon association rate constant): 170000 M⁻¹ s⁻¹; EC50 (D2SR [2]; mean ± SEM): 410 ± 70 nM; Emax (D2SR [2]): 89 ± 3%
CCCN(CCCCc1cn(-c2ccc(C(=O)NCCCNC(=O)Cc3ccc4c(c3)C(C)(C)C3=C5C=C6C7=[N+](CCC6OC5CCN34)c3ccc(S(=O)(=O)[O-])cc3C7(C)C)cc2)nn1)C1Cc2ccccc2C1 (stereo not drawn) [10b] | 5100 nM | 120 nM | 330 nM | – | – | – | – | 87 nM | EC50 (D2SR [2]; [3]): 410 ± 60 nM; Emax (D2SR [2]): 79 ± 3%; Ki (human D2LR; [4]): 10 ± 2 nM; Ki (D2SR [1]; [5]): 4.8 ± 1 nM; Ki (human D3R; [6]): 0.9 ± 0.26 nM; Ki (human D4R; [7]): 50 ± 7 nM
CCCN(CCCCc1cn(-c2ccc(C(=O)NCCCNC(=O)c3ccc(-c4c5ccc(=N)c(S(=O)(=O)O)c-5oc5c(S(=O)(=O)O)c(N)ccc45)c(C(=O)O)c3)cc2)nn1)C1Cc2ccccc2C1 [10c] | 5100 nM | 85 nM | 2200 nM | – | – | – | – | 150 nM | EC50 (D2SR [2]; [3]): 100 ± 20 nM; Emax (D2SR [2]): 93 ± 3%; Ki (human D2LR; [4]): 23 ± 5 nM; Ki (D2SR [1]; [5]): 15 ± 4 nM; Ki (human D3R; [6]): 0.76 ± 0.11 nM; Ki (human D4R; [7]): 47 ± 9 nM
